Results published in patent US20230364419A1, “USE OF E[…] ENHANCE THE DELIVERY OF PHARMACEUTICAL AGENTS AND OTHER […] THE SURFACE MUCOSA AND WALL OF THE URETER AND RENAL PELVIS, AND INTO THE RENAL PARENCHYMA” (priority 2022, published 2023).
Entries after “also recorded” stand apart in the source; their conditions may differ.

Columns and labels:
[1] = Porcine ureteral EMDA proof-of-concept study: methylene blue infused through the ureteral catheter with or without current; format: in vivo, Yorkshire pigs; details: for microscopic penetration of methylene blue into the ureteral wall (frozen section / histopathology): 20 min, infusion 5 ml/min
Source text: Cystoscopy is used to place a 0.035 in. guidewire into the ureter and up into the renal pelvis. The cystoscope is removed and the EMDA delivery catheter is advanced over the 0.035-inch super-stiff guidewire into the ureter up to the level of the ureteropelvic junction (i.e., not into the renal pelvis). A fluoroscopic image is obtained to confirm the correct position of the catheter in the ureter with the proximal tip just inside the renal pelvis. The 0.035 in. guidewire is removed and the silver wire is passed into the EMDA catheter. The circumference of the tip of silver wire (connected to positive electrode of EMDA generator) is larger than the exit hole in the distal tip of the EMDA catheter and thus its passage stops at the catheter’s tip and occludes the end-hole, thereby preventing any flow of instilled fluid from the tip of the catheter. A dispersing electrode (negative) is placed on the flank area. The EMDA is then activated and the fluid containing the intended medication is instilled at 5 ml/min via a drug infusion pump for 20 minutes.
An electrical current of 10 mA is used to achieve a current density of less than 0.5 mA/cm^2. This value was obtained based on prior work in other areas with regard to the safety and efficacy of EMDA. The ureteral surface was multiplied [20 cm (length)×(circumference≈1 cm) ≈20 cm^2] by 0.5 mA/cm^2. A pulsed or direct current can be used during EMDA.
As proof of concept, a porcine study was performed (IACUC approved protocol: 21-131). A charged molecule, methylene blue, was instilled which is suitable for EMDA because of its net positive charge, small molecular size, and strong blue color. Via the EMDA catheter, a pulsed electrical current of 10 mA was applied for 20 minutes during instillation of the methylene blue solution The pigs were then euthanized and both ureters were harvested. Visually, the difference in the color density in the experimental (EMDA ureter) and control ureter (without EMDA) was apparent.
Two Yorkshire pigs were placed under general anesthesia. Cystoscopy was used to place a 0.035 in. super-stiff™ guidewire into each ureter. A prefabricated ureteral catheter with equidistant (5 mm) fenestrations in three rows was advanced into each ureter. A silver wire was then passed into each ureteral catheter; the circumference of the silver wire was larger than the terminal opening in the catheter such that its passage stopped at the catheter’s tip, thereby preventing any flow of instilled fluid from the tip of the catheter. Methylene blue, a heterocyclic aromatic dye with a net positive charge, was infused through each catheter at a rate of 5 ml/min. In the experimental ureter, a positive pulsed electrical current of 10 mA was applied using a Physionizer® EDMA device. […]

[2] = Methylene blue infusion into the renal pelvis with or without EMDA activation; format: in vivo
Procedure: In another example, cystoscopy was used to place a 0.035 in. guidewire into the ureter and pass it up into the renal pelvis. The cystoscope is removed and a 5 to 15 Fr pigtail catheter is advanced over the guidewire; the guidewire is removed. A retrograde pyelogram is performed and the fluid is then drained from the renal pelvis and measured in order to obtain the volume of the renal pelvis. The guidewire is replaced and the pigtail catheter is removed and the EMDA delivery catheter is advanced over the guidewire into the ureter. A fluoroscopic image is obtained to confirm the correct position of the catheter with the proximal tip inside the renal pelvis. The guidewire is removed and the catheter assumes its nonintubated “C” shape along its proximal end; the silver wire is passed into the EMDA catheter (alternatively a pre-assembled catheter will be deployed via a preplaced ureteral access sheath) following the “C” shape of the distal end of the catheter.
For renal pelvis EMDA, an electrical current of 4 mA (using a dedicated EMDA generator) is used in the C-shape catheter to achieve a current density of less than 0.5 mA/cm^2. This value is obtained based on prior work in the bladder with regard to the safety and efficacy of EMDA; the collecting system surface (8 cm^2) was multiplied by 0.5 mA/cm^2. A pulsed current is used during EMDA; however, direct current is also applicable.

macroscopic staining of the renal pelvis ([2]; with EMDA activation): Intense staining of the renal pelvis
macroscopic staining of the renal pelvis ([2]; without EMDA activation): Faint staining of the renal pelvis
Structure (SMILES): CN(C)c1ccc2nc3ccc(=[N+](C)C)cc-3sc2c1 [methylene blue]
microscopic penetration of methylene blue into the ureteral wall (frozen section / histopathology) ([1]; control ureter, without EMDA): only patchy staining of the urothelium; also recorded: minimal, patchy staining of the urothelial lining with negligible penetration of methylene blue beyond the urothelium; also recorded: patchy methylene blue staining was seen only on the urothelium with negligible deeper penetration
microscopic penetration of methylene blue into the ureteral wall (frozen section / histopathology) ([1]; experimental ureter, with EMDA, pulsed current 10 mA): could be delivered beyond the urothelium and deeply into the wall of the ureter; also recorded: dense blue staining of the urothelium; also recorded: penetration of methylene blue throughout the wall of the EMDA treated ureter; also recorded: diffuse penetration of methylene blue into the urothelium, lamina propria, muscularis propria, and periureteral tissue
macroscopic staining of the interior surface of the ureter ([1]; with EMDA): intense staining of the experimental ureter
macroscopic staining of the interior surface of the ureter ([1]; without EMDA): minimal staining of the urothelial lining
microscopic staining of urothelium and submucosa of the renal pelvis ([2]; with EMDA activation): Deep blue staining of urothelium and the submucosa of the renal pelvis
tissue injury of the renal pelvis (H&E staining) ([2]; with EMDA activation): normal architecture with no signs of acute injury
microscopic staining of urothelium and submucosa of the renal pelvis ([2]; without EMDA activation): Blue staining of urothelium with less intensity and negligible methylene blue staining the submucosa of the renal pelvis
tissue injury of the renal pelvis (H&E staining) ([2]; without EMDA activation): normal architecture with no evidence of injury
